In one assay the target is LdMetRS (Leishmania donovani, UniProt A0A3Q8IBX2). Also on record: method as in PMID 28967262. The following applies: cited from earlier work.
For assay [1], the system named is leishmaniasis animal model. Also on record: method as in PMID 28967262. The settings on record: cited from earlier work.
For another assay, the target named is TcMetRS (Trypanosoma cruzi, UniProt Q4D6H2). Briefly: TcMetRS BIOMOL Green biochemical assay, 10-point dose response. The following applies: 50 μM methionine, 100 μM ATP, 80 nM TcMetRS.
TcMetRS, sequence (Q4D6H2 entry or part of it): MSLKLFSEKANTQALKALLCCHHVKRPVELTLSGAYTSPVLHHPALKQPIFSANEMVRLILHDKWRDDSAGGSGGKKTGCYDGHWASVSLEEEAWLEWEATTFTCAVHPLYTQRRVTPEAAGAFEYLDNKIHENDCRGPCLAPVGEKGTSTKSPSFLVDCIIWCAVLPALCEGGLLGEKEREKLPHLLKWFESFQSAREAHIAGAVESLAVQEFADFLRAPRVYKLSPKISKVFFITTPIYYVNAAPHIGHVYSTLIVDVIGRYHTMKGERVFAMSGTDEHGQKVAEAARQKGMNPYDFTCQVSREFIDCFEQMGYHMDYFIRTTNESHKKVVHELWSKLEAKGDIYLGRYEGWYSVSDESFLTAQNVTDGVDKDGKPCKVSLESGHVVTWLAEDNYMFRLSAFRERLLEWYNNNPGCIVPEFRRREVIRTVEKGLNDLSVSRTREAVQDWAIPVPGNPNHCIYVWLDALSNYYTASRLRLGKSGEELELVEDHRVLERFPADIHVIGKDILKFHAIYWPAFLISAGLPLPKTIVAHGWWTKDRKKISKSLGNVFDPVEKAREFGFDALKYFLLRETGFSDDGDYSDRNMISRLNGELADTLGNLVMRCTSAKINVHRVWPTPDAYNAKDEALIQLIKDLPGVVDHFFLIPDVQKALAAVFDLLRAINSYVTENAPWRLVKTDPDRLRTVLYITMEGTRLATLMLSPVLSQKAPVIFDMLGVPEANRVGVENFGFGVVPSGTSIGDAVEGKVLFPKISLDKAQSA

Like-named read-outs stand apart in the source and are kept apart here.

LdMetRS, sequence (A0A3Q8IBX2 entry or part of it): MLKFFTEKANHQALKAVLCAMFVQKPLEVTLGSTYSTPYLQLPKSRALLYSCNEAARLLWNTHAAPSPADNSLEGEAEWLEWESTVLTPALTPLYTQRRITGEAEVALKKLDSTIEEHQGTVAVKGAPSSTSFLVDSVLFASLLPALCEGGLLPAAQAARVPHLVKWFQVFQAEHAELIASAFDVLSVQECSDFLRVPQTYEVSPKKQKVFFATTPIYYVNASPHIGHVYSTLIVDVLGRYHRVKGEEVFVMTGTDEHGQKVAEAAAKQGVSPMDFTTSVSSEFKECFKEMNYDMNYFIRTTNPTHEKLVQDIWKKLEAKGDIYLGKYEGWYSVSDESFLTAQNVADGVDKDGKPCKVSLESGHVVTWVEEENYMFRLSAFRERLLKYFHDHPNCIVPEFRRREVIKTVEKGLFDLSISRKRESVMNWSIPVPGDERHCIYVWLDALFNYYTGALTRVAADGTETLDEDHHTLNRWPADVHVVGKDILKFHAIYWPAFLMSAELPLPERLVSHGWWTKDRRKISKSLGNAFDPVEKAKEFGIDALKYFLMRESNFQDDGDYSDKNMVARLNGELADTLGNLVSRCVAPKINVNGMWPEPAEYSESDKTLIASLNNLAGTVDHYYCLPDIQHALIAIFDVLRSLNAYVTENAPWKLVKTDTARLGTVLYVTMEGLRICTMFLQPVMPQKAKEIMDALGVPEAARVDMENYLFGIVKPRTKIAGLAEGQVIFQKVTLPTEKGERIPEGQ

Turning to `O=c1nc(NCCCNCc2cc3c(Cl)cc(Cl)cc3[nH]2)[nH]c2ccccc12` [DDD806905, reference compound], the “LdMetRS pIC50” value on LdMetRS is listed as 7.0. Also, the in vivo efficacy entry in assay [1] was “failed to show in vivo efficacy”. The IC50 on TcMetRS (read-out: TcMetRS pIC50 (converted)) was 39.8 nM; at TcMetRS (tight binding limit likely reached, read-out: TcMetRS IC50) it was 38 nM.

Values taken from publication PMC7294809, “Discovery of an Allosteric Binding Site in Kinetoplastid Methionyl-tRNA Synthetase” (ACS Infectious Diseases, 2020).
